In patent US6599943B1, “Use of hydroxyguanidines” (WaPharm AB, priority 1996, dated 2003):
Where a name gives a salt, the structure may show the parent alone.

biological target: bovine milk xanthine oxidase (Bos taurus, UniProt P80457); assay: Capacity to sustain oxidation of xanthine by xanthine oxidase in the absence of oxygen, spectrophotometric; format: biochemical; parameters: host or cells: bovine milk; conditions: 50 μM hydroxyguanidine, 50 μM xanthine, 0.05 units/ml xanthine oxidase, anaerobic, pH 7.5, 20° C., blank subtracted
Description: Capacities of a series of hydroxyguanidine to sustain the oxidation of xanthine by xanthine oxidase in the absence of oxygen. The capacities of various hydroxyguanidines to sustain the oxidation of xanthine was assayed by using a spectrophotometric method. In this method bovine milk xanthine oxidase was injected to a Helma® sealable cuvette for anaerobic application thereby creating 1 ml of a reaction mixture that contained reagents as follows: 50 μM of a hydroxyguanidine, 50 μM xanthine, 0.05 units/ml bovine milk xanthine oxidase, 50 mM Tris and 1.5 mM EDTA; the pH of the reaction mixture being 7.5, and the temperature 20° C. Anaerobic conditions were assured by pre-gassing all solutions used for 5-10 min, with nitrogen. The rate of formation of uric acid was monitored spectrophotometrically by measuring the increase in absorbance at 295 nm (the absorption maximum for uric acid) at intervals. The relative capacities of the hydroxyguanidines to sustain oxidation of xanthine were estimated from the derivative of the initial linear phase of the curves. To obtain blank readings an equal volume of the solvent of the hydroxyguanidine (water) was added to the reaction mixture in separate experiments and the initial rate of absorbance change was substracted from the rate readings of the tested hydroxyguanidine.
Exemplary initial rates for the rate of the support of the oxidation of xanthine obtained by assaying the exemplary hydroxyguanidines listed above by the method in the present example are furthermore given in Table 2: […]

bovine milk xanthine oxidase, sequence (P80457 whole entry): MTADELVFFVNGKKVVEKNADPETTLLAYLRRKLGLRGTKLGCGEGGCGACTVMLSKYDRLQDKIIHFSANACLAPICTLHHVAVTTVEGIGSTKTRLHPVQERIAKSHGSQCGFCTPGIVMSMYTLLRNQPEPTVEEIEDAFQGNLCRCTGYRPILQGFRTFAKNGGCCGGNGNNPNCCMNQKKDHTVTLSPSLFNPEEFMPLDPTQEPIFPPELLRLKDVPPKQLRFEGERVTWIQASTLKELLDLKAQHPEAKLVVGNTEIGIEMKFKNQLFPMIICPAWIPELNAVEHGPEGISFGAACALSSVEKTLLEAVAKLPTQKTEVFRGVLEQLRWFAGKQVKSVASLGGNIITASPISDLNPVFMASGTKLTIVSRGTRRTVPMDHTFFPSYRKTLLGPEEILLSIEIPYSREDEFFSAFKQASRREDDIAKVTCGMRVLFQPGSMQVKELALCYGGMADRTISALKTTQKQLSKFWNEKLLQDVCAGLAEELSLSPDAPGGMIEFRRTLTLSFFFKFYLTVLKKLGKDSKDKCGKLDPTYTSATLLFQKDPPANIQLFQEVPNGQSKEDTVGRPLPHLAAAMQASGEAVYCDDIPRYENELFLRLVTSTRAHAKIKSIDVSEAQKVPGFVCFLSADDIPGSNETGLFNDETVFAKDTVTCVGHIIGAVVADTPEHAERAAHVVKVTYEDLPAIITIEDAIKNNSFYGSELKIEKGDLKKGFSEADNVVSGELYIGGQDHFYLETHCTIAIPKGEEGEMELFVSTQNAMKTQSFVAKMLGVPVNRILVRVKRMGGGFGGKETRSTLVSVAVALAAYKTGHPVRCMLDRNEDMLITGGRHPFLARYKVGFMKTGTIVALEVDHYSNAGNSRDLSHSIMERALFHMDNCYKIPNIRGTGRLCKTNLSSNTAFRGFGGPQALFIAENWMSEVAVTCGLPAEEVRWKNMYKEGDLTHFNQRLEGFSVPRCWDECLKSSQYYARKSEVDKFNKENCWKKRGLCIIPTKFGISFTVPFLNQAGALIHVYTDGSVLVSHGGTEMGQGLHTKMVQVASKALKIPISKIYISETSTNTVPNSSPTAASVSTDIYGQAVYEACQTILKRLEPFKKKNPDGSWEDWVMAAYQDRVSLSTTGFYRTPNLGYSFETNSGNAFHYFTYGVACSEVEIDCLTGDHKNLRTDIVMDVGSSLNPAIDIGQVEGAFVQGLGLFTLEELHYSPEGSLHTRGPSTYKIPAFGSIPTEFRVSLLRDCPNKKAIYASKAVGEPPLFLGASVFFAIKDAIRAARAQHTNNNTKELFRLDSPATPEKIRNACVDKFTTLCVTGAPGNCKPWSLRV

SMILES	V = 1000 × (Δabs 295 nm) min^−1 (initial rate of the support of the oxidation of xanthine)
N=C(NN)NO [Aminohydroxyguanidine, 1-amino-3-hydroxyguanidine, reference compound]	1.4 1000 × (Δabs 295 nm) min^−1
COc1ccc(/C=N/NC(=N)NO)cc1OC [DWO1, reference compound]	40 1000 × (Δabs 295 nm) min^−1
COc1ccc(/C=N/NC(=N)NO)c(OC)c1C [DWO2, reference compound]	30.7 1000 × (Δabs 295 nm) min^−1
COc1ccc(/C=N/NC(=N)NO)c(OC)c1 [DWO3, reference compound]	29.4 1000 × (Δabs 295 nm) min^−1
COc1ccc(/C=N/NC(=N)NO)cc1O [DWO4, reference compound]	36.7 1000 × (Δabs 295 nm) min^−1
COc1ccc(/C=N/NC(=N)NO)c(Cl)c1O [DWO5, reference compound]	59.7 1000 × (Δabs 295 nm) min^−1
COc1cc(Br)c(/C=N/NC(=N)NO)cc1OC [DWO6, reference compound]	30.7 1000 × (Δabs 295 nm) min^−1
COc1ccc(/C=N/NC(=N)NO)cc1F [DWO7, reference compound]	30.7 1000 × (Δabs 295 nm) min^−1
COc1cc(/C=N/NC(=N)NO)c([N+](=O)[O-])cc1OC [DWO8, reference compound]	45.4 1000 × (Δabs 295 nm) min^−1
COc1ccc(C=NNC(=N)NO)cc1Br [EN10, N-(3-Bromo-4-methoxybenzylideneamino)-N′-hydroxyguanidine tosylate]	22 1000 × (Δabs 295 nm) min^−1
N=C(NO)NN=Cc1ccc(C(F)(F)F)cc1 [EN12, N-(4-Trifluoromethylbenzylideneamino)-N′-hydroxyguanidine tosylate]	11 1000 × (Δabs 295 nm) min^−1
N=C(NO)N/N=C\C=C/c1ccccc1 [EN16, N-(3-Phenylpropenyleneamino)-N′-hydroxyguanidine tosylate]	66 1000 × (Δabs 295 nm) min^−1
Cc1cc2oc(/C=N/NC(=N)NO)cc(=O)c2cc1Cl [EN18, N-(6-Chloro-7-methyl-4oxo-4H-1-benzopyran-3-methyleneamino)-N′-hydroxyguanidine tosylate]	5 1000 × (Δabs 295 nm) min^−1
CC(=C/c1ccccc1)/C=N/NC(=N)NO [EN20]	44 1000 × (Δabs 295 nm) min^−1
N=C(N)NO [Hydroxyguanidine, N-hydroxyguanidine]	0.7 1000 × (Δabs 295 nm) min^−1
N=C(NO)N/N=C1\C(=O)Nc2ccc(F)cc21 [LT5, reference compound]	50 1000 × (Δabs 295 nm) min^−1
CCCCCCOc1cccc(/C=N/NC(=N)NO)c1 [LT7, reference compound]	12 1000 × (Δabs 295 nm) min^−1
N=C(NO)N/N=C/C1CCCCC1 [LT10, reference compound]	3 1000 × (Δabs 295 nm) min^−1

SMILES	V = 1000 × (Δabs 295 nm) min^−1 (initial rate of the support of the oxidation of xanthine)
COc1cccc(/C=N/NC(=N)NO)c1 [LT11, reference compound]	26 1000 × (Δabs 295 nm) min^−1
N=C(NO)N/N=C/c1c2ccccc2c(Cl)c2ccccc12 [LW01, reference compound]	0 1000 × (Δabs 295 nm) min^−1
N=C(NO)N/N=C/c1ccc2c(c1)OCCO2 [LW04, reference compound]	55 1000 × (Δabs 295 nm) min^−1
N=C(NO)N/N=C/c1ccc(/C=N/NC(=N)NO)cc1 [PR1, 1,4-Bis(N-Hydroxyguanidinoiminomethyl)Benzene Bromide]	63 1000 × (Δabs 295 nm) min^−1
N=C(NO)NN=C(c1ccccc1)c1ccccc1 [PR2, N-(Diphenylmethyleneamino)-N′-Hydroxyguanidine Bromide]	1 1000 × (Δabs 295 nm) min^−1
N=C(NO)NN=C1CCCCC1 [PR4, N-(Cyclohexylideneamino)-N′-Hydroxyguanidine Tosylate]	7 1000 × (Δabs 295 nm) min^−1
ONc1ncn[nH]1 [PR6, 3-Hydroxyimino-1,2,4-triazole tosylate]	4 1000 × (Δabs 295 nm) min^−1
N=C(NO)N/N=C/c1cccc(/C=N/NC(=N)NO)c1 [PR8, 1,3-Bis(N-hydroxyguanidinoiminomethyl)benzene tosylate chloride]	29 1000 × (Δabs 295 nm) min^−1
CC(C)CC=NNC(=N)NO [PR10, N-(3-Methylbutylideneamino)-N′-hydroxyguanidine tosylate]	−1 1000 × (Δabs 295 nm) min^−1
COc1ccc(/C(C)=N/NC(=N)NO)cc1OC [PR11, 3,4-Dimethoxyacetophenone-N-hydroxyguanyl-hydrazone tosylate]	12 1000 × (Δabs 295 nm) min^−1
N=C(NO)NN=Cc1ccco1 [PR12, N-(Furyl-2-methyleneamino)-N′-hydroxyguanidine tosylate]	11 1000 × (Δabs 295 nm) min^−1
N=C(NO)NN=CCc1ccccc1 [PR13, N-(Phenylethylideneamino)-N′-hydroxyguanidine tosylate]	3 1000 × (Δabs 295 nm) min^−1
N=C(NO)N/N=C/c1cccn1-c1ccc(Cl)cc1 [PR15, N-[1-(4-Chlorophenyl)-pyrrolyl-2-methyleneamino(]-N′-hydroxyguanidine tosylate]	7 1000 × (Δabs 295 nm) min^−1
N=C(NO)N/N=C/c1nccs1 [PR16, N-(Thiazolyl-2-methyleneamino)-N′-hydroxyguanidine tosylate]	13 1000 × (Δabs 295 nm) min^−1
N=C(NO)NN=CCOc1c(Cl)cccc1Cl [PR17, N-(2,6-Dichlorophenoxyethylideneamino)-N′-hydroxyguanidine bromide]	−2 1000 × (Δabs 295 nm) min^−1
Cc1c(/C=N/NC(=N)NO)sc2ccccc12 [PR18, N-(3-Methylbenzo[b]thienyl-2-methyleneamino)-N'-hydroxyguanidine tosylate]	43 1000 × (Δabs 295 nm) min^−1
N=C(NO)N/N=C/c1cc[n+](O)cc1 [PR19, N-(N-Oxypyridyl-4-methyleneamino)-N′-hydroxyguanidine tosylate]	5 1000 × (Δabs 295 nm) min^−1
Cc1nn(C)c(Cl)c1/C=N/NC(=N)NO [PR20, N-(5-Chloro-1,3-dimethylpyrazolyl-4-methyleneamino)-N′-hydroxyguanidine tosylate]	13 1000 × (Δabs 295 nm) min^−1

same assay, conditions: as disclosed in Example 7

SMILES	activity / capacity to undergo reduction (reaction A), in words
COc1ccc(/C=N/NC(=N)NO)c(OC)c1 [DWO3, reference compound]	moderate capacity
